Measured values published in article PMC2913692 (The European journal of neuroscience, 2010).
Read-outs that look alike come from different tables or passages of the source.

How the values were obtained:
[1] = test system: N-methyl-D-aspartate receptor (NMDAR), NR1 subunit coagonist site
[2] = test system: N-methyl-D-aspartate receptor (NMDAR), NR1 subunit coagonist site; test: whole-cell voltage clamp of retinal ganglion cells; design: species or system Ambystoma tigrinum
[3] = test system: N-methyl-D-aspartate receptor (NMDAR), NR1 subunit coagonist site; test: whole-cell voltage clamp; assay type: cell-based, Ambystoma tigrinum

`NCC(=O)O` [glycine] showed an EC50 [1] of 118 ± 48.1 µM.

For `N[C@H](CO)C(=O)O` [D-serine], the EC50 [2] was 3.48 ± 1.05 µM.

With `O=C(O)c1cc(O)c2ccc(Cl)cc2n1` [7CKA, 7-chlorokynurenic acid] the “% of control at 25 μM” value [3] was 5.3 ± 1.0.
